According to patent publication US10131652B2, “Pyrimidinyloxy benzene derivatives as herbicides” (E. I. DU PONT DE NEMOURS AND COMPANY, priority 2014, dated 2018):
Read-outs that look alike come from different tables or passages of the source.

Assays:
Experiment in all cases: Test F pre-/postemergence plant response
Assay type in all cases: in vivo
corn (Zea mays) = conditions: Zea mays, pre-emergence, scale 0 to 100
Outline: (§1)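 Visual control ratings were scored 0 (no effect) to 100 (complete control) versus untreated plants after 14–21 greenhouse days. Compounds, formulated in a surfactant-containing non-phytotoxic solvent, were applied both to silt loam at planting (preemergence) and to 1- to 4-leaf plants 2–18 cm tall (postemergence).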

[1] = test system: hairy beggarticks (Bidens pilosa); conditions: Bidens pilosa, scale 0 to 100, read-out: Plant response rating, Beggarticks
Outline: as §1

[2] = test system: lambsquarters (Chenopodium album); conditions: Chenopodium album, pre-emergence, scale 0 to 100, read-out: Plant response rating, Lambsquarters
Outline: as §1

[3] = test system: dayflower (Virginia (VA) dayflower, Commelina virginica); conditions: Commelina virginica, scale 0 to 100, read-out: Plant response rating, Dayflower, VA
Outline: as §1

[4] = test system: ragweed (common ragweed, Ambrosia elatior); conditions: Ambrosia artemisiifolia, pre-emergence, scale 0 to 100, read-out: Plant response rating, Ragweed
Outline: as §1

[5] = test system: arrowleaf sida (Sida rhombifolia); conditions: Sida rhombifolia, scale 0 to 100, read-out: Plant response rating, Arrowleaf Sida
Outline: as §1

[6] = test system: surinam grass (Brachiaria decumbens); conditions: Urochloa decumbens, pre-emergence, scale 0 to 100, read-out: Plant response rating, Surinam Grass
Outline: as §1

[7] = test system: goosegrass (Eleusine indica); conditions: Eleusine indica, pre-emergence, scale 0 to 100, read-out: Plant response rating, Goosegrass
Outline: as §1

[8] = test system: Italian ryegrass (Lolium multiflorum); conditions: Lolium multiflorum, scale 0 to 100, read-out: Plant response rating, Ryegrass, Italian; for pest or weed control at 16 g/ha: 16 g ai/ha; for pest or weed control at 31 g/ha: 31 g ai/ha; for pest or weed control at 125 g/ha: 125 g ai/ha
Outline: as §1

[9] = post-emergence, 8 g ai/ha Postemergence
[10] = post-emergence, 16 g ai/ha Postemergence
[11] = post-emergence, 31 g ai/ha Postemergence
[12] = post-emergence, 62 g ai/ha Postemergence
[13] = post-emergence, 125 g ai/ha Postemergence
[14] = pre-emergence, 8 g ai/ha Preemergence
[15] = pre-emergence, 16 g ai/ha Preemergence
[16] = pre-emergence, 31 g ai/ha Preemergence
[17] = pre-emergence, 62 g ai/ha Preemergence
[18] = pre-emergence, 125 g ai/ha Preemergence

FC(F)c1cc(-c2ccccc2Oc2ncc(Cl)cn2)on1 [Compound 53, 5-chloro-2-[2-[3-(difluoromethyl)-5-isoxazolyl]phenoxy]pyrimidine]
50%: pest or weed control at 62 g/ha [1, 12] | pest or weed control at 62 g/ha [3, 12] | pest or weed control at 62 g/ha [3, 17]
10%: pest or weed control at 62 g/ha ([7]; Preemergence)
40%: pest or weed control at 31 g/ha [1, 11] | pest or weed control at 16 g/ha [3, 10] | pest or weed control at 125 g/ha ([4]; 125 g ai/ha Preemergence)
98%: pest or weed control at 125 g/ha ([2]; 125 g ai/ha, Preemergence) | pest or weed control at 31 g/ha [5, 11] | pest or weed control at 125 g/ha [5, 13]
0%: Corn plant response rating (crop injury, 0 = no effect, 100 = complete kill) at 8 g/ha (corn (Zea mays); 8 g ai/ha Preemergence) | Corn plant response rating (crop injury, 0 = no effect, 100 = complete kill) at 16 g/ha (corn (Zea mays); 16 g ai/ha Preemergence) | Corn plant response rating (crop injury, 0 = no effect, 100 = complete kill) at 31 g/ha (corn (Zea mays); 31 g ai/ha Preemergence) | Corn plant response rating (crop injury, 0 = no effect, 100 = complete kill) at 62 g/ha (corn (Zea mays); 62 g ai/ha Preemergence) | pest or weed control at 8 g/ha [1, 14] | pest or weed control at 16 g/ha [1, 15] | pest or weed control at 31 g/ha [1, 16] | pest or weed control at 8 g/ha [3, 14] | pest or weed control at 16 g/ha [3, 15] | pest or weed control at 31 g/ha [3, 16] | pest or weed control at 8 g/ha ([4]; 8 g ai/ha Preemergence) | pest or weed control at 16 g/ha ([4]; 16 g ai/ha Preemergence) | pest or weed control at 31 g/ha ([4]; 31 g ai/ha Preemergence) | pest or weed control at 8 g/ha [5, 14] | pest or weed control at 8 g/ha ([6]; 8 g ai/ha Preemergence) | pest or weed control at 16 g/ha ([6]; 16 g ai/ha Preemergence) | pest or weed control at 31 g/ha ([6]; 31 g ai/ha Preemergence) | pest or weed control at 125 g/ha ([6]; 125 g ai/ha Preemergence) | pest or weed control at 62 g/ha ([6]; Preemergence) | pest or weed control at 8 g/ha ([7]; 8 g ai/ha Preemergence) | pest or weed control at 16 g/ha ([7]; 16 g ai/ha Preemergence) | pest or weed control at 31 g/ha ([7]; 31 g ai/ha Preemergence) | pest or weed control at 8 g/ha [8, 9] | pest or weed control at 16 g/ha ([8]; post-emergence, Postemergence) | pest or weed control at 31 g/ha ([8]; post-emergence, Postemergence) | pest or weed control at 125 g/ha ([8]; post-emergence, Postemergence) | pest or weed control at 8 g/ha [8, 14] | pest or weed control at 16 g/ha ([8]; pre-emergence, Preemergence) | pest or weed control at 31 g/ha ([8]; pre-emergence, Preemergence) | pest or weed control at 125 g/ha ([8]; pre-emergence, Preemergence) | pest or weed control at 62 g/ha ([8]; pre-emergence, Preemergence)
90%: pest or weed control at 16 g/ha [5, 10]
70%: pest or weed control at 8 g/ha [5, 9]
5%: pest or weed control at 62 g/ha ([8]; post-emergence, 62 g ai/ha, Postemergence)
15%: Corn plant response rating (crop injury, 0 = no effect, 100 = complete kill) at 125 g/ha (corn (Zea mays); 125 g ai/ha Preemergence) | pest or weed control at 8 g/ha [1, 9]
65%: pest or weed control at 8 g/ha ([2]; 8 g ai/ha Preemergence) | pest or weed control at 16 g/ha ([2]; 16 g ai/ha, Preemergence) | pest or weed control at 31 g/ha [5, 16]
95%: pest or weed control at 31 g/ha ([2]; 31 g ai/ha, Preemergence) | pest or weed control at 62 g/ha ([2]; Preemergence) | pest or weed control at 125 g/ha [3, 18]
60%: pest or weed control at 125 g/ha [1, 13] | pest or weed control at 125 g/ha [3, 13] | pest or weed control at 125 g/ha ([7]; 125 g ai/ha Preemergence)
20%: pest or weed control at 125 g/ha [1, 18] | pest or weed control at 16 g/ha [5, 15]
30%: pest or weed control at 16 g/ha [1, 10] | pest or weed control at 62 g/ha [1, 17] | pest or weed control at 8 g/ha [3, 9] | pest or weed control at 31 g/ha [3, 11] | pest or weed control at 62 g/ha ([4]; Preemergence)
100%: pest or weed control at 62 g/ha [5, 12] | pest or weed control at 62 g/ha [5, 17] | pest or weed control at 125 g/ha [5, 18]
